Legend:
[1] = tested on: corneal neovascularization; conditions: rats; cited from earlier work
physchem = conditions: 37 °C, aqueous buffer, thermodynamic from solid
Procedure: To measure solubility, 5 mg of sunitinib malate or SPC complex was placed in microcentrifuge tubes with 1 mL of PBS. The samples were then placed on an orbital shaker (150 rpm) in an incubator at 37° C. After 7 days, samples were collected and centrifuged at 17,000 rcf for 30 min. The supernatant was collected, and concentrations were measured using HPLC (Shimadzu Prominence LC-20). Supernatant samples were mixed 1:10 with acetonitrile containing 0.1% trifluoroacetic acid. Acetonitrile and water was used as a mobile phase at a ratio of 55:45. Samples were eluted isocratically at a flow rate of 1 mL/min through a C18-reversed phase column at 40° C. UV absorbance was monitored at 431 nm.

primary mouse RGCs = test: Retinal ganglion cell (RGC) viability assay (CellTiter-Glo); format: cell-based; conditions: concentrations as high as 10 mg/mL; with 1 μM sunitinib malate; 72 h
Procedure: Mouse RGCs were purified as described ny Welsbie, D. S., et al., Proceedings of the National Academy of Sciences of the United States of America, 2013. 110(10): p. 4045-4050. Purified cells were plated on a poly-D-lysine/laminin coated 384-well culture dish at 4,000 cells per well and cultured in Neurobasal media supplemented with B-27, N-2, L-glutamine, and penicillin/streptomycin. Sunitinib malate (1 μM) was dissolved in dimethyl sulfoxide (DMSO) and added at the same time cells were plated (250 nL into 50 μL of media) to promote RGC survival. Then, either PBS or different volumes of sodium pamoate dissolved in DMSO was added at the concentrations indicated (0.1, 1, 10 mg/mL) to determine whether there was any effect on RGC survival. A PBS control was included for each pamoic acid concentration to account for dilutional effects. After cells were cultured for 72 h at 37° C., viability was measured by CellTiter-Glo (Promega) luminescence.

SMILES | effect on corneal neovascularization after subconjunctival injection [1] | solubility at 7 days (physchem) | effect on primary mouse RGC survival compared to PBS (primary mouse RGCs)
CCN(CC)CCNC(=O)c1c(C)[nH]c(/C=C2\C(=O)Nc3ccc(F)cc32)c1C [sunitinib malate, Sunitinib malate] | no effect on neovascularization | 0.525 ± 0.063 mg/mL | –
O=C(O)c1cc2ccccc2c(Cc2c(O)c(C(=O)O)cc3ccccc23)c1O [Pamoic acid] | – | – | no detrimental effect
